ChEMBL document CHEMBL1914384, “Design, synthesis, and structure-activity relationship studies of highly potent novel benzoxazinyl-oxazolidinone antibacterial agents” (J Med Chem, 2011)
Values after ≈ are worked out from the molar mass of the structure shown.

Assays:
Staphylococcus aureus [1] = experiment: Antibacterial activity against Staphylococcus aureus ATCC 29213 after 16 hrs by agar dilution method; assay type: functional; conditions: ATCC 29213, 16 h
Staphylococcus aureus [2] = experiment: Antibacterial activity against methicillin-resistant Staphylococcus aureus after 16 hrs by agar dilution method; assay type: functional
[3] = tested on: Staphylococcus epidermidis; experiment: Antibacterial activity against methicillin-resistant Staphylococcus epidermidis after 16 hrs by agar dilution method; assay type: functional
Streptococcus pneumoniae = experiment: Antibacterial activity against penicillin-resistant Streptococcus pneumoniae after 16 hrs by agar dilution method; assay type: functional
Enterococcus faecalis [4] = experiment: Antibacterial activity against Enterococcus faecalis after 16 hrs by agar dilution method; assay type: functional
Staphylococcus aureus [5] = experiment: Antibacterial activity against linezolid-resistant Staphylococcus aureus after 16 hrs by agar dilution method; assay type: functional
[6] = tested on: Staphylococcus epidermidis; experiment: Antibacterial activity against linezolid-resistant Staphylococcus epidermidis after 16 hrs by agar dilution method; assay type: functional
Enterococcus faecalis [7] = experiment: Antibacterial activity against linezolid-resistant Enterococcus faecalis after 16 hrs by agar dilution method; assay type: functional
Enterococcus faecium [8] = experiment: Antibacterial activity against linezolid-resistant Enterococcus faecium after 16 hrs by agar dilution method; assay type: functional
Staphylococcus aureus [9] = experiment: Antibacterial activity against Staphylococcus aureus ATCC 19636 infected in mouse systemic infection model administered orally 1 hour after infection measured 48 hrs of post-treatment; assay type: functional; conditions: ATCC 19636, po
Staphylococcus aureus [10] = experiment: Antibacterial activity against methicillin-resistant Staphylococcus aureus ATCC 33591 infected in NSA mouse neutropenic model administered orally 1 hour after infection measured 48 hrs post-treatment; assay type: functional; conditions: ATCC 33591, po
Staphylococcus aureus [11] = experiment: Antibacterial activity against Linezolid-resistant Staphylococcus aureus after 16 hrs by agar dilution method relative to Linezolid; assay type: functional
[12] = tested on: Staphylococcus epidermidis; experiment: Antibacterial activity against Linezolid-resistant Staphylococcus epidermidis after 16 hrs by agar dilution method relative to Linezolid; assay type: functional
Enterococcus faecalis [13] = experiment: Antibacterial activity against Linezolid-resistant Enterococcus faecalis after 16 hrs by agar dilution method relative to Linezolid; assay type: functional
Enterococcus faecium [14] = experiment: Antibacterial activity against Linezolid-resistant Enterococcus faecium after 16 hrs by agar dilution method relative to Linezolid; assay type: functional
Staphylococcus aureus [15] = experiment: Antibacterial activity against Staphylococcus aureus ATCC 19636 infected in mouse systemic infection model administered orally 1 hour after infection measured 48 hrs post-treatment relative to Linezolid; assay type: functional
Staphylococcus aureus [16] = experiment: Antibacterial activity against methicillin-resistant Staphylococcus aureus ATCC 33591 infected in NSA mouse neutropenic model administered orally 1 hour after infection measured 48 hrs post-treatment relative to Linezolid; assay type: functional
[17] = Cmax in Sprague-Dawley rat at 15 mg/kg, po by LC-MS analysis; assay type: ADME, organism-based; set-up: dose 15 mg/kg, route oral; conditions: in vivo
[18] = Tmax in Sprague-Dawley rat at 15 mg/kg, po by LC-MS analysis; assay type: ADME, organism-based; set-up: dose 15 mg/kg, route oral; conditions: in vivo
[19] = Half life in Sprague-Dawley rat at 15 mg/kg, po by LC-MS analysis; assay type: ADME, organism-based; set-up: dose 15 mg/kg, route oral; conditions: in vivo
[20] = AUC (0 to infinity) in Sprague-Dawley rat at 15 mg/kg, po by LC-MS analysis; assay type: ADME, organism-based; set-up: time infinity, dose 15 mg/kg, route oral; conditions: plasma
[21] = Clearance in Sprague-Dawley rat at 15 mg/kg, po by LC-MS analysis; assay type: ADME, organism-based; set-up: dose 15 mg/kg, route oral; conditions: in vivo
[22] = Oral bioavailability in Sprague-Dawley rat at 15 mg/kg by LC-MS analysis; assay type: ADME, organism-based; conditions: in vivo
[23] = Cmax in Sprague-Dawley rat at 15 mg/kg, iv by LC-MS analysis; assay type: ADME, organism-based; set-up: dose 15 mg/kg, route intravenous; conditions: in vivo
[24] = Clearance in Sprague-Dawley rat at 15 mg/kg, iv by LC-MS analysis; assay type: ADME, organism-based; set-up: dose 15 mg/kg, route intravenous; conditions: in vivo

`CC(=O)NC[C@@H]1OC(=O)N2c3ccc(-c4ccc(C#N)nc4)cc3OC[C@@H]12` showed an MIC (Staphylococcus aureus [1]) of 0.125 µg/mL (≈ 0.343 µM), an MIC (Staphylococcus aureus [2]) of 0.25 µg/mL (≈ 0.686 µM) and an MIC [3] of 0.25 µg/mL (≈ 0.686 µM). It also gave an MIC (Streptococcus pneumoniae) of 0.25 µg/mL (≈ 0.686 µM), an MIC (Enterococcus faecalis [4]) of 0.5 µg/mL (≈ 1.37 µM) and an MIC (Staphylococcus aureus [5]) of 2 µg/mL (≈ 5.49 µM). It also gave an MIC [6] of 1 µg/mL (≈ 2.74 µM), an MIC (Enterococcus faecalis [7]) of 1 µg/mL (≈ 2.74 µM) and an MIC (Enterococcus faecium [8]) of 0.5 µg/mL (≈ 1.37 µM). The ED50 (Staphylococcus aureus [9]) was 2.5 mg/kg, the ED50 (Staphylococcus aureus [10]) was less than 5 mg/kg and the “fold change (FC)” value (Staphylococcus aureus [11]) was 8. The “fold change (FC)” value [12] was 8, the “fold change (FC)” value (Enterococcus faecalis [13]) was 8 and the “fold change (FC)” value (Enterococcus faecium [14]) was 8. The “fold change (FC)” value (Staphylococcus aureus [15]) was 4, the “fold change (FC)” value (Staphylococcus aureus [16]) was 3 and the Cmax [17] was 5000 ng/mL. The Tmax [18] was 4 h, the half-life [19] was 5.5 h and the AUC(0-inf) [20] was 66000 ng·h/mL. It also gave a CL/F [21] of 3.82 mL/min/kg, a bioavailability [22] of 81% and a Cmax [23] of 7000 ng/mL. The clearance [24] was 3.07 mL/min/kg.
